According to PubChem BioAssay (NCI):
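Following 48 hours of exposure in 96-well plates, responses at five concentrations were used to interpolate endpoints linearly. GI50 marks 50% less growth. TGI denotes the concentration required for complete inhibition of growth.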

Key:
Experiment in all cases: NCI anticancer screen, dose series, 48 h
OVCAR-4 ovarian = system: OVCAR-4 ovarian
T-47D breast = system: T-47D breast
SN12C renal = system: SN12C renal
K-562 leukemia = system: K-562 leukemia
786-0 renal = system: 786-0 renal
KM12 colon = system: KM12 colon
U251 CNS = system: U251 CNS
LOX IMVI melanoma = system: LOX IMVI melanoma
NCI-H522 lung = system: NCI-H522 lung
DU-145 prostate = system: DU-145 prostate
SF-539 CNS = system: SF-539 CNS
ACHN renal = system: ACHN renal
A549 NSCLC = system: A549 NSCLC
HCC-2998 colon = system: HCC-2998 colon
RPMI-8226 leukemia = system: RPMI-8226 leukemia
SF-268 CNS = system: SF-268 CNS
SK-OV-3 ovarian = system: SK-OV-3 ovarian
MCF7 breast = system: MCF7 breast
EKVX NSCLC = system: EKVX NSCLC
BT-549 breast = system: BT-549 breast
SK-MEL-28 melanoma = system: SK-MEL-28 melanoma
HS 578T breast = system: HS 578T breast
NCI-H226 lung = system: NCI-H226 lung
SF-295 CNS = system: SF-295 CNS
OVCAR-8 ovarian = system: OVCAR-8 ovarian
HL-60(TB) leukemia = system: HL-60(TB) leukemia
NCI-H460 lung = system: NCI-H460 lung
HOP-62 NSCLC = system: HOP-62 NSCLC
OVCAR-5 ovarian = system: OVCAR-5 ovarian
NCI-H23 lung = system: NCI-H23 lung
NCI/ADR-RES ovarian = system: NCI/ADR-RES ovarian
UACC-257 melanoma = system: UACC-257 melanoma
CAKI-1 renal = system: CAKI-1 renal
UO-31 renal = system: UO-31 renal
SK-MEL-2 melanoma = system: SK-MEL-2 melanoma
HOP-92 NSCLC = system: HOP-92 NSCLC
A498 renal = system: A498 renal
SW-620 colon = system: SW-620 colon
HCT-116 colon = system: HCT-116 colon
MDA-MB-468 breast = system: MDA-MB-468 breast
IGROV1 ovarian = system: IGROV1 ovarian
OVCAR-3 ovarian = system: OVCAR-3 ovarian
HT29 colon = system: HT29 colon
CCRF-CEM leukemia = system: CCRF-CEM leukemia
RXF 393 renal = system: RXF 393 renal
MOLT-4 leukemia = system: MOLT-4 leukemia
SNB-19 CNS = system: SNB-19 CNS
SK-MEL-5 melanoma = system: SK-MEL-5 melanoma
SNB-75 CNS = system: SNB-75 CNS
M14 melanoma = system: M14 melanoma
UACC-62 melanoma = system: UACC-62 melanoma
PC-3 prostate = system: PC-3 prostate
COLO 205 colon = system: COLO 205 colon
MDA-MB-231 breast = system: MDA-MB-231 breast
MDA-MB-435 = system: MDA-MB-435
TK-10 renal = system: TK-10 renal
HCT-15 colon = system: HCT-15 colon
MALME-3M melanoma = system: MALME-3M melanoma

Compound: Cc1ccccc1[C@H]1C(C(=O)c2ccc(Cl)cc2)C2(N[C@@H]1c1ccccc1)C(=O)Nc1ccccc12 (stereo partly specified)
- GI50 (OVCAR-4 ovarian): 6.08 µM
- TGI (OVCAR-4 ovarian): 16.2 µM
- GI50 (T-47D breast): 4.91 µM
- TGI (T-47D breast): 11.6 µM
- GI50 (SN12C renal): 4.92 µM
- TGI (SN12C renal): 10.1 µM
- GI50 (K-562 leukemia): 5.11 µM
- TGI (K-562 leukemia): 42.3 µM
- GI50 (786-0 renal): 6.9 µM
- TGI (786-0 renal): 16.3 µM
- GI50 (KM12 colon): 6.73 µM
- TGI (KM12 colon): 16.2 µM
- GI50 (U251 CNS): 5.56 µM
- TGI (U251 CNS): 13.1 µM
- GI50 (LOX IMVI melanoma): 2.51 µM
- TGI (LOX IMVI melanoma): 7.97 µM
- GI50 (NCI-H522 lung): 4.46 µM
- TGI (NCI-H522 lung): 11.5 µM
- GI50 (DU-145 prostate): 4.91 µM
- TGI (DU-145 prostate): 12.8 µM
- GI50 (SF-539 CNS): 6.95 µM
- TGI (SF-539 CNS): 13.6 µM
- GI50 (ACHN renal): 6.46 µM
- TGI (ACHN renal): 14.8 µM
- GI50 (A549 NSCLC): 5.81 µM
- TGI (A549 NSCLC): 20.4 µM
- GI50 (HCC-2998 colon): 5.95 µM
- TGI (HCC-2998 colon): 12.2 µM
- GI50 (RPMI-8226 leukemia): 7.66 µM
- TGI (RPMI-8226 leukemia): 28.3 µM
- GI50 (SF-268 CNS): 5.73 µM
- TGI (SF-268 CNS): 17.1 µM
- GI50 (SK-OV-3 ovarian): 7.41 µM
- TGI (SK-OV-3 ovarian): 31.5 µM
- GI50 (MCF7 breast): 2.26 µM
- TGI (MCF7 breast): 12.4 µM
- GI50 (EKVX NSCLC): 4.96 µM
- TGI (EKVX NSCLC): 17.2 µM
- GI50 (BT-549 breast): 5.47 µM
- TGI (BT-549 breast): 11 µM
- GI50 (SK-MEL-28 melanoma): 5.91 µM
- TGI (SK-MEL-28 melanoma): 11.7 µM
- GI50 (HS 578T breast): 4.76 µM
- TGI (HS 578T breast): 15.3 µM
- GI50 (NCI-H226 lung): 5.91 µM
- TGI (NCI-H226 lung): 12.1 µM
- GI50 (SF-295 CNS): 5.3 µM
- TGI (SF-295 CNS): 13.2 µM
- GI50 (OVCAR-8 ovarian): 6.05 µM
- TGI (OVCAR-8 ovarian): 13.4 µM
- GI50 (HL-60(TB) leukemia): 8.01 µM
- TGI (HL-60(TB) leukemia): 30.4 µM
- GI50 (NCI-H460 lung): 6.15 µM
- TGI (NCI-H460 lung): 14.9 µM
- GI50 (HOP-62 NSCLC): 6.26 µM
- TGI (HOP-62 NSCLC): 13 µM
- GI50 (OVCAR-5 ovarian): 4.37 µM
- TGI (OVCAR-5 ovarian): 9.67 µM
- GI50 (NCI-H23 lung): 5.67 µM
- TGI (NCI-H23 lung): 12.2 µM
- GI50 (NCI/ADR-RES ovarian): 4.41 µM
- TGI (NCI/ADR-RES ovarian): 10.8 µM
- GI50 (UACC-257 melanoma): 5.81 µM
- TGI (UACC-257 melanoma): 15.3 µM
- GI50 (CAKI-1 renal): 3.62 µM
- TGI (CAKI-1 renal): 11.6 µM
- GI50 (UO-31 renal): 4.6 µM
- TGI (UO-31 renal): 10.8 µM
- GI50 (SK-MEL-2 melanoma): 5.83 µM
- TGI (SK-MEL-2 melanoma): 12.1 µM
- GI50 (HOP-92 NSCLC): 2.47 µM
- TGI (HOP-92 NSCLC): 8.55 µM
- GI50 (A498 renal): 6.77 µM
- TGI (A498 renal): 12.9 µM
- GI50 (SW-620 colon): 5.54 µM
- TGI (SW-620 colon): 13.8 µM
- GI50 (HCT-116 colon): 2.46 µM
- TGI (HCT-116 colon): 8.7 µM
- GI50 (MDA-MB-468 breast): 0.957 µM
- TGI (MDA-MB-468 breast): 2.74 µM
- GI50 (IGROV1 ovarian): 5.63 µM
- TGI (IGROV1 ovarian): 14 µM
- GI50 (OVCAR-3 ovarian): 1.64 µM
- TGI (OVCAR-3 ovarian): 7.17 µM
- GI50 (HT29 colon): 3.42 µM
- TGI (HT29 colon): 11.4 µM
- GI50 (CCRF-CEM leukemia): 4.8 µM
- TGI (CCRF-CEM leukemia): 26.8 µM
- GI50 (RXF 393 renal): 1.42 µM
- TGI (RXF 393 renal): 6.02 µM
- GI50 (MOLT-4 leukemia): 4.14 µM
- TGI (MOLT-4 leukemia): 33 µM
- GI50 (SNB-19 CNS): 8.35 µM
- TGI (SNB-19 CNS): 26.6 µM
- GI50 (SK-MEL-5 melanoma): 5.25 µM
- TGI (SK-MEL-5 melanoma): 10.6 µM
- GI50 (SNB-75 CNS): 2.63 µM
- TGI (SNB-75 CNS): 14.5 µM
- GI50 (M14 melanoma): 5.62 µM
- TGI (M14 melanoma): 11.7 µM
- GI50 (UACC-62 melanoma): 2.78 µM
- TGI (UACC-62 melanoma): 8.48 µM
- GI50 (PC-3 prostate): 2.08 µM
- TGI (PC-3 prostate): 10.5 µM
- GI50 (COLO 205 colon): 7.31 µM
- TGI (COLO 205 colon): 13.8 µM
- GI50 (MDA-MB-231 breast): 4.31 µM
- TGI (MDA-MB-231 breast): 9.35 µM
- GI50 (MDA-MB-435): 3.65 µM
- TGI (MDA-MB-435): 9.28 µM
- GI50 (TK-10 renal): 6.86 µM
- TGI (TK-10 renal): 15.8 µM
- GI50 (HCT-15 colon): 5.11 µM
- TGI (HCT-15 colon): 14.1 µM
- GI50 (MALME-3M melanoma): 6 µM
- TGI (MALME-3M melanoma): 11.6 µM
